Marks after values point to notes of the source that are not given here.
Tests used:
Hem-A mice [1] = assay: Survival after tail clip, PPS-treated Hem-A mice; assay type: in vivo
Method: (§1) Hem-A mice (homozygous for the exon 16 FVIII KO allele) were licensed from John Hopkins University, and Hem-B mice (homozygous for the exon 1-3 FIX KO) were licensed from University of North Carolina at Chapel Hill. All animal procedures were performed according to “Guide for the Care and Use of Laboratory Animals” (National Research Council. Guide for the care and use of laboratory animals. Washington, D.C.: National Academy Press; 1996) and all procedures were reviewed and approved by an institutional animal care and use committee.
(§2) A. PPS Efficacy in Hem-A and Hem-B Mice The efficacy of PPS in improving clotting in Hem-A and Hem-B mice was tested. Hem-A and Hem-B male or female mice were administered PPS at a dose of 0.02, 0.06, or 0.2 mg/kg or saline vehicle subcutaneously twice daily for […]. On the morning of the fifth day after dosing, the tail was clipped 1 cm from the tip, and behavior and survival were monitored for the next 20-24 hours.

TFPI = biological target: T1, TFPI (Homo sapiens, UniProt P10646); assay: dPT assay, inhibition of TFPI activity in Hem-A plasma, TFPI preincubated with NASP; assay type: biochemical; conditions: Hem-A + TFPI, preincubation, plasma alone 44, + TFPI 151 seconds
T1 construct: purchased American Diagnostica (Stamford, Conn.)
T1 sequence (P10646 29-304): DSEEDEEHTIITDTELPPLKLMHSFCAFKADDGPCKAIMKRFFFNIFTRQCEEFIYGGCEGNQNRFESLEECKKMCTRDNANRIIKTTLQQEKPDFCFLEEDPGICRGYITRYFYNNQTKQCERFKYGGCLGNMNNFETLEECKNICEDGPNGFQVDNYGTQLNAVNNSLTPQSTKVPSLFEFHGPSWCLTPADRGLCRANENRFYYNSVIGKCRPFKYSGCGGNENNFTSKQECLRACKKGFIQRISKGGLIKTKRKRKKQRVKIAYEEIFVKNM
Method: (§3) The dPT assay used was a modified standard clinical PT assay (Nordfang et al. (1991) Thromb Haemost 66:464-467; Welsch et al. (1991) Thrombosis Research 64: 213-222). SIMPLASTIN EXCEL thromboplastin reagent (Organon Teknika) was reconstituted with the manufacturer's diluent and further diluted 1:100 in 0.9% saline. The thromboplastin reagent, 25 mM CaCl2, and plasma samples were pre-warmed to 37° C. before initiating the assay. 100 μl of thawed plasma was aliquoted into microcentrifuge tubes. […] 100 μl of the diluted thromboplastin reagent and 100 μl of 25 mM CaCl2 were added to fibrin cups (Fisher) prewarmed to 37° C. 100 μl of plasma (normal or hemophilic) containing the test agent or saline control was added to the fibrin cups containing the thromboplastin reagent and CaCl2 to initiate clotting. The time for plasma clotting was measured with a BBL FIBROSYSTEM fibrometer.
Inhibition of TFPI activity by NASPs was assessed in dPT clotting assays with normal or hemophilic plasma and added recombinant TFPI. Diluted recombinant TFPI was preincubated with NASPs for 5 minutes at room temperature before plasma was added. After addition of plasma, the mixture was incubated for an additional 25 minutes followed by dPT initiation.

Hem-B mice [2] = assay: dPT clotting time of blood samples from Hem-B mice treated with PPS; assay type: in vivo; parameters: unit not given here
Method: The efficacy of PPS in improving clotting in Hem-B mice was further tested in dPT assays. All mice were bled prior to the study to establish baseline (pretest) clotting times. Mice (14 weeks old) were treated subcutaneously twice a day with PPS for 4.5 days at the following doses: 2, 0.3 and 0.06 mg/kg in a volume of 250 μl. Mice were bled after 4.5 days, and clotting times were determined from collected blood samples.

Hem-B mice [3] = assay: Survival after tail clip, PPS-treated Hem-B mice; assay type: in vivo; conditions: 0.06 mg/kg s.c. twice daily 4.5 days, vehicle 25, p = 0.07
Method: as §1, §2

Hem-A plasma = assay: dPT assay, anti-coagulant activity of NASPs in Hem-A plasma; assay type: biochemical, human; conditions: for clotting time, dPT: Hem-A plasma without NASP 41.5 seconds; for concentration for 50% prolongation of clotting time, fold higher than heparin: dPT, Hem-A plasma
Method: as §3
Test compounds were diluted to 100 μM, 10 μM, 2 μM and 200 nM. For each test compound, 12.5 μl of a diluted solution containing the test compound was added to 237.5 μl of Hem-A plasma and incubated at room temperature. 100 μl of plasma containing the test compound was removed for dPT assays of plasma clotting time as described in Example 2.

rats = conditions: subcutaneously; cited from earlier work
Hem-A mice [4] = assay: Second fucoidan study, fucoidan +/- FVIII, survival of Hem-A mice after tail vein transection; assay type: in vivo; conditions: fucoidan 0.1 mg/kg s.c. twice daily 4.5 days, FVIII 1.25% reconstitution 2 hours prior
Method: In a second study with fucoidan, combination therapy potential with factor VIII was evaluated. This study was performed as described above, except on the morning of the fifth day, mice received an intravenous bolus dose of 53 mU/mouse FVIII (about 1.25% of the normal level of FVIII) in a tail vein far up near the body. As before, the lateral tail vein, and not the artery, was transected 2 hours later at the region corresponding to a diameter of about 2.7 mm. […] Survival and clinical observations were recorded for 20-24 hours.

rabbits = conditions: intravenously at 10 mg/kg; cited from earlier work
Hem-A mice [5] = assay: First fucoidan study, survival of Hem-A mice after bleeding test; assay type: in vivo; conditions: vehicle 1/6
Method: Given the improved potency and magnitude of efficacy of fucoidan relative to PPS in some of the clotting assays described above, additional studies were performed in Hem-A mice with fucoidan. In the first study with fucoidan, nearly the same regimen as described for PPS was adopted, but with slightly different dose levels. Hem-A male mice were administered fucoidan at a dose of 0.1 or 1.0 mg/kg or saline subcutaneously twice daily for 4 days. On the morning of the 5th day, mice received a doubled dose of fucoidan prior to the bleeding test. Survival and animal behavior were evaluated for mice treated with fucoidan compared to vehicle controls.
In the first study, treatment of mice with fucoidan at a dose of 0.1 mg/kg appeared to be more efficacious than treatment at a dose of 1.0 mg/kg (survival at about 10 hours was 1/6 for vehicle, 4/6 for 0.1 mg/kg, and 3/6 for 1.0 mg/kg).

Substance | clotting time, dPT (TFPI; 0.16 nM) | clotting time, dPT (TFPI; 0.8 nM) | clotting time, dPT (TFPI; 4 nM) | clotting time, dPT (TFPI; 20 nM) | clotting time, dPT (TFPI; 100 nM) | clotting time, dPT (TFPI; 500 nM) | clotting time, dPT (Hem-A plasma; 10 nM) | clotting time, dPT (Hem-A plasma; 100 nM) | clotting time, dPT (Hem-A plasma; 500 nM) | concentration for 50% prolongation of clotting time, fold higher than heparin (Hem-A plasma) | other results
Pentosan Polysulphate Sodium [PPS] | 158 s | 111 s | 91 s | 55 s | 57 s | 74 s | 39 s | 37 s | 40 s | ~100 fold | % Survival (20 hours post-cut) (Hem-A mice [1]; 0.02 mg/kg s.c. twice daily 4.5 days, vehicle 25): 20 ^ %; % Survival (20 hours post-cut) (Hem-A mice [1]; 0.06 mg/kg s.c. twice daily 4.5 days, vehicle 25, p = 0.07): 44 ^# %; improvement in survival (Hem-A mice [1]; 0.06 mg/kg, not statistically significant (0.05<p<0.1)): nearly two-fold improvement in survival; % Survival (20 hours post-cut) (Hem-A mice [1]; 0.2 mg/kg s.c. twice daily 4.5 days, vehicle 25): 40 ^ %; Mean clotting time at 4.5 days (Hem-B mice [2]; 0.06 mg/kg s.c. twice a day): 37; Mean clotting time at 4.5 days (Hem-B mice [2]; 0.3 mg/kg s.c. twice a day): 38; Mean clotting time at 4.5 days (Hem-B mice [2]; 2.0 mg/kg s.c. twice a day): 44; % Survival (20 hours post-cut) (Hem-B mice [3]): 44 ^# %; clotting time, dPT (Hem-A plasma; 5000 nM): 70 s; doses required to prolong clotting (rats): > 5 mg/kg
Fucoidan | 130 s | 108 s | 72 s | 54 s | 46 s | 75 s | 39 s | 38 s | 60 s | approximately 10 fold | % Survival 9 hr (Hem-A mice [4]; 9 hr after tail vein incision, vehicle 21): 61 * %; % Survival 20 hr (Hem-A mice [4]; 20 hr after tail vein incision, vehicle 7): 38 ^+ %; tolerability (rabbits): well-tolerated; survival at about 10 hours (Hem-A mice [5]; 0.1 mg/kg s.c. twice daily): 4/6; survival at about 10 hours (Hem-A mice [5]; 1.0 mg/kg s.c. twice daily): 3/6

Source: patent US8771973B2, “Methods for treating bleeding disorders using sulfated polysaccharides” (Baxter Healthcare S.A., priority 2004, dated 2014)
